Results: patent US4376778A, “Antibiotic substances and processes for production thereof” (Meiji Seika Kaisha, Ltd., priority 1979, dated 1983)
Values after ≈ are worked out from the molar mass of the structure shown.

What was measured:
[1] = system: Escherichia coli K-12 IAM 1264; assay: MIC by agar dilution method, Escherichia coli K-12 IAM 1264; type: cell-based; conditions: IAM1264; Escherichia coli K-12 IAM 1264, agar dilution; read-out: Minimum Inhibitory Concentration
Description: (§1) The minimum inhibitory concentrations of the SF-2080A substance and SF-2080B substance against various microorganisms as measured by the agar dilution method are shown in Table 4 below.

[2] = system: Pseudomonas aeruginosa IAM 1007; assay: MIC by agar dilution method, Pseudomonas aeruginosa IAM 1007; type: cell-based; conditions: IAM1007; Pseudomonas aeruginosa IAM 1007, agar dilution; read-out: Minimum Inhibitory Concentration
Description: as §1

[3] = system: Klebsiella pneumoniae ATCC 27763; assay: MIC by agar dilution method, Klebsiella pneumoniae ATCC 27763; type: cell-based; conditions: ATCC27763; Klebsiella pneumoniae ATCC 27763, agar dilution; read-out: Minimum Inhibitory Concentration
Description: as §1

[4] = Acute toxicity by intraperitoneal administration in mice; conditions: mouse, in vivo, ip
[5] = system: Staphylococcus aureus Smith; assay: MIC by agar dilution method, Staphylococcus aureus Smith; type: cell-based; conditions: read-out: Minimum Inhibitory Concentration
Description: as §1

[6] = system: Shigella dysenteriae Shigae; assay: microbe, parasite or virus in culture; type: cell-based; conditions: read-out: Minimum Inhibitory Concentration
Trichophyton asteroides [7] = assay: MIC by plate dilution method, Trichophyton asteroides; type: cell-based; conditions: read-out: minimum growth inhibitory concentration (MIC)
Description: (§2) The minimum growth inhibitory concentration (MIC) against each test strain according to the plate dilution method is shown below: […]

Solubility = type: physicochemical
Pyricularia oryzae = assay: microbe, parasite or virus in culture; type: cell-based; conditions: read-out: Minimum Inhibitory Concentration
Trichophyton asteroides [8] = assay: Infection treatment test of guinea pigs infected by Trichophyton asteroides, observation with the naked eye; type: in vivo, Trichophyton asteroides; guinea pig; conditions: for Effect on flush / Effect on scale / Effect on thickening of the affected skin: guinea pig, 1% solution, topical, once a day for 8 days, naked eye
Description: (§3) An infection treatment test of guinea pigs infected by a strain of Trichophyton asteroides on their backs was carried out using the liquid preparation having formulation as shown in Table 6.
(§4) Hairs were pulled off from a white Hartly guinea pig (4 guinea pigs per group) at 4 areas of the back thereof (2 areas on each side, 4×6 cm) and a Trichophyton asteroides-floating solution (liquid Sabouraud's culture medium; number of living cells: 2×10^7 /ml) was infected with a brush in an amount of 0.5 ml per each area. After 2 days from the infection, 0.25 ml of a 1% solution of SF-2080A substance (see Table 6) was applied at one area on each side, once a day and continuously for 8 days.
(§5) The same procedure as above was carried out, except using a 1% solution of pyrrolnitrin and a 1% solution of clotrimazole. Guinea pigs so treated were compared with those to which no treatment was applied.

[9] = system: Escherichia coli NIHJ JC-2; assay: MIC by agar dilution method, Escherichia coli NIHJ JC-2; type: cell-based; conditions: NIHJJC2; Escherichia coli NIHJ JC-2, agar dilution; read-out: Minimum Inhibitory Concentration
Description: as §1

fungi = assay: Plate dilution method, fungi (overall statement); type: cell-based; conditions: overall statement in words
Description: as §2

Trichophyton asteroides [10] = assay: Infection treatment test of guinea pigs infected by Trichophyton asteroides, infected organism cultivation positive ratio; type: in vivo, Trichophyton asteroides; guinea pig; conditions: for infected organism cultivation positive ratio: after 8 days treatment, 1% solution, guinea pig
Description: as §3, §4, §5
After treatment for 8 days, 3 skin pieces were collected from each affecte area and cultivated on a Sabouraud's agar plate for 7 days to observe the infected organism cultivation positive ratio.

[11] = system: Cryptococcus neoformans Cr-1; assay: MIC by agar dilution method, Cryptococcus neoformans Cr-1; type: cell-based; conditions: CR1; Cryptococcus neoformans Cr-1, agar dilution; read-out: Minimum Inhibitory Concentration
Description: as §1

[12] = system: Staphylococcus aureus FDA 209P JC-1; assay: MIC by agar dilution method, Staphylococcus aureus FDA 209P JC-1; type: cell-based; conditions: FDA209P; Staphylococcus aureus FDA 209P JC-1, agar dilution; read-out: Minimum Inhibitory Concentration
Description: as §1

[13] = system: Serratia marcescens No. 1; assay: MIC by agar dilution method, Serratia marcescens No. 1; type: cell-based; conditions: Serratia marcescens No. 1, agar dilution; read-out: Minimum Inhibitory Concentration
Description: as §1

[14] = system: Staphylococcus epidermidis ATCC 14990; assay: MIC by agar dilution method, Staphylococcus epidermidis ATCC 14990; type: cell-based; conditions: ATCC14990; Staphylococcus epidermidis ATCC 14990, agar dilution; read-out: Minimum Inhibitory Concentration
Description: as §1

Proteus vulgaris OX-19 = assay: MIC by agar dilution method, Proteus vulgaris OX-19; type: cell-based; conditions: OX19; Proteus vulgaris OX-19, agar dilution; read-out: Minimum Inhibitory Concentration
Description: as §1

Trichophyton asteroides [15] = assay: MIC by agar dilution method, Trichophyton asteroides; type: cell-based; conditions: read-out: Minimum Inhibitory Concentration
Description: as §1

Diaporthe citri = assay: MIC by agar dilution method, Diaporthe citri; type: cell-based; conditions: read-out: Minimum Inhibitory Concentration
Description: as §1

[16] = system: Cryptococcus neoformans Cr-1; assay: MIC by plate dilution method, Cryptococcus neoformans CR-1; type: cell-based; conditions: CR1; Cryptococcus neoformans CR-1, plate dilution; read-out: minimum growth inhibitory concentration (MIC)
Description: as §2

Salmonella typhi O-901-W = assay: MIC by agar dilution method, Salmonella typhi O-901-W; type: cell-based; conditions: Salmonella enterica, read-out: Minimum Inhibitory Concentration
various microorganisms = assay: Agar dilution method, various microorganisms (overall statement); type: cell-based; conditions: overall statement in words
Description: as §1

[17] = system: Bacillus subtilis ATCC 6633; assay: MIC by agar dilution method, Bacillus subtilis ATCC 6633; type: cell-based; conditions: ATCC6633; Bacillus subtilis ATCC 6633, agar dilution; read-out: Minimum Inhibitory Concentration
Description: as §1

Candida albicans C-A-24 = assay: MIC by plate dilution method, Candida albicans C-A-24; type: cell-based; conditions: CA24; Candida albicans C-A-24, plate dilution; read-out: minimum growth inhibitory concentration (MIC)
Description: as §2

[18] = system: Trichophyton interdigital; assay: MIC by agar dilution method, Trichophyton interdigital; type: cell-based; conditions: read-out: Minimum Inhibitory Concentration
Description: as §1

Aspergillus fumigatus [19] = assay: MIC by plate dilution method, Aspergillus fumigatus; type: cell-based; conditions: read-out: minimum growth inhibitory concentration (MIC)
Description: as §2

[20] = system: Trichophyton interdigitale; assay: MIC by plate dilution method, Trichophyton interdigitale; type: cell-based; conditions: read-out: minimum growth inhibitory concentration (MIC)
Description: as §2

Aspergillus fumigatus [21] = assay: MIC by agar dilution method, Aspergillus fumigatus; type: cell-based; conditions: read-out: Minimum Inhibitory Concentration
Description: as §1

[22] = as compared with pyrrolnitrin and clotrimazole, statement in words

Row | Structure (SMILES) | MIC [1] | MIC [2] | MIC [3] | MIC [5] | MIC [6] | Solubility in acetone (Solubility) | Solubility in chloroform (Solubility) | Solubility in methanol (Solubility) | MIC (Pyricularia oryzae) | MIC [9] | infected organism cultivation positive ratio (Trichophyton asteroides [10]; day of cultivation 3) | infected organism cultivation positive ratio (Trichophyton asteroides [10]; day of cultivation 5) | infected organism cultivation positive ratio (Trichophyton asteroides [10]; day of cultivation 7) | MIC [11] | MIC [12] | MIC [13] | MIC [14] | MIC (Proteus vulgaris OX-19) | MIC (Trichophyton asteroides [15]) | MIC (Diaporthe citri) | further results
1 | O=[N+]([O-])c1c[nH]c(Cl)c1Cl [SF-2080A substance] | 6.25 µg/mL (≈ 34.5 µM) | 6.25 µg/mL (≈ 34.5 µM) | 6.25 µg/mL (≈ 34.5 µM) | 3.13 µg/mL (≈ 17.3 µM) | 3.13 µg/mL (≈ 17.3 µM) | easily soluble | soluble | easily soluble | 0.8 µg/mL (≈ 4.42 µM) | 6.25 µg/mL (≈ 34.5 µM) | 25% | 37% | 37% | 25 µg/mL (≈ 138 µM) | 1.56 µg/mL (≈ 8.62 µM) | 6.25 µg/mL (≈ 34.5 µM) | 3.13 µg/mL (≈ 17.3 µM) | 6.25 µg/mL (≈ 34.5 µM) | 3.12 µg/mL (≈ 17.2 µM) | 0.8 µg/mL (≈ 4.42 µM) | acute toxicity, survival ([4]; 10 mg/kg): all mice survived; acute toxicity, mortality ([4]; 30 mg/kg): all mice died; MIC (Trichophyton asteroides [7]): 3.12 µg/mL (≈ 17.2 µM); therapeutic effect, observation with the naked eye (Trichophyton asteroides [8]; [22]): excellent therapeutic effects; treatment effect in thickening of the affected skin, flush, and scale (Trichophyton asteroides [8]; compared with 1% pyrrolnitrin and 1% clotrimazole, statement in words): best treatment effect; inhibition of growth of fungi (fungi): inhibits the growth of fungi; therapeutic effect, cultivation positive ratio (Trichophyton asteroides [10]; [22]): excellent therapeutic effects; decrease in the cultivation positive ratio (Trichophyton asteroides [10]; compared with pyrrolnitrin-dosed, clotrimazole-dosed and no treatment groups, in words): evident decrease; MIC [16]: 25 µg/mL (≈ 138 µM); MIC (Salmonella typhi O-901-W): 6.25 µg/mL (≈ 34.5 µM); antibacterial/antimicrobial effectiveness against the strains tested (various microorganisms): generally effective against all strains of bacteria tested; MIC [17]: 1.56 µg/mL (≈ 8.62 µM); MIC (Candida albicans C-A-24): 100 µg/mL (≈ 553 µM); MIC [18]: 1.56 µg/mL (≈ 8.62 µM); MIC (Aspergillus fumigatus [19]): 25 µg/mL (≈ 138 µM); MIC [20]: 1.56 µg/mL (≈ 8.62 µM); MIC (Aspergillus fumigatus [21]): 25 µg/mL (≈ 138 µM)
2 | O=[N+]([O-])c1c(Cc2cc(Cl)cc(Cl)c2O)[nH]c(Cl)c1Cl [SF-2080B substance] | 100 µg/mL (≈ 281 µM) | > 100 µg/mL | > 100 µg/mL | 0.2 µg/mL (≈ 0.562 µM) | 50 µg/mL (≈ 140 µM) | easily soluble | soluble | easily soluble | 3.13 µg/mL (≈ 8.79 µM) | 100 µg/mL (≈ 281 µM) | – | – | – | > 100 µg/mL | 0.2 µg/mL (≈ 0.562 µM) | > 100 µg/mL | 0.1 µg/mL (≈ 0.281 µM) | 0.78 µg/mL (≈ 2.19 µM) | > 100 µg/mL | 0.4 µg/mL (≈ 1.12 µM) | acute toxicity, fraction of mice that survived ([4]; 100 mg/kg): 2/3; MIC (Salmonella typhi O-901-W): 50 µg/mL (≈ 140 µM); antibacterial/antimicrobial effectiveness against the strains tested (various microorganisms): very effective against a limited number of strains, but it is less active or lacks toward the others; MIC [17]: 0.1 µg/mL (≈ 0.281 µM); MIC [18]: 100 µg/mL (≈ 281 µM); MIC (Aspergillus fumigatus [21]): > 100 µg/mL
3 | Clc1ccccc1C(c1ccccc1)(c1ccccc1)n1ccnc1 [clotrimazole] | – | – | – | – | – | – | – | – | – | – | 75% | 96% | 96% | – | – | – | – | – | – | – | Effect on flush (Trichophyton asteroides [8]): Ineffective; Effect on scale (Trichophyton asteroides [8]): Effective; Effect on thickening of the affected skin (Trichophyton asteroides [8]): Effective
4 | O=[N+]([O-])c1c(Cl)cccc1-c1c[nH]cc1Cl [pyrrolnitrin] | – | – | – | – | – | – | – | – | – | – | 62% | 87% | 87% | – | – | – | – | – | – | – | Effect on flush (Trichophyton asteroides [8]): Ineffective; Effect on scale (Trichophyton asteroides [8]): Ineffective; Effect on thickening of the affected skin (Trichophyton asteroides [8]): Effective
